Measured values reported in paper PMC9147390, “Evaluation of TILI-2 as an Anti-Tyrosinase, Anti-Oxidative Agent and Its Role in Preventing Melanogenesis Using a Proteomics Approach” (Molecules, 2022).
No end group written: not given here.

Columns and labels:
[1] = ABTS radical scavenging assay; details: 0 to 50 µM, 6 min, room temperature
Description: The ABTS radical scavenging assay was performed with slight modifications of the protocol reported by Re et al.. Briefly, ABTS^+ was generated by the incubation of 7 mM ABTS with 2.45 mM potassium persulfate for 16 h at room temperature. Next, the ABTS radical solution was diluted until the absorbance at 734 nm was 0.7. The diluted ABTS radical solution (100 µL) was mixed with TILI-2 (final concentration 0–200 µM, 10 µL) and incubated at room temperature for 6 min. After that, the absorbance at 734 nm was measured using a SpectraMax M5 plate reader (Molecular Devices, Sunnyvale, CA, USA). The percentage of ABTS radical inhibition was calculated using the equation below: ABTS radical inhibition %=1−A734 sample/A734 control×100 where A734 sample and A734 control are the absorbance at 734 nm of the reaction with and without peptide.
(§1) The data were represented as mean ± SD (n = 3). An ANOVA test according to Duncan (p < 0.05) was used for each comparison (IBM SPSS Statistics 20).

[2] = DPPH radical scavenging assay; details: 0 to 200 µM, 30 min, room temperature, dark
Description: The DPPH radical scavenging assay was performed with slight modifications of the protocol reported by Jandaruang et al.. Briefly, a DPPH radical solution (0.1 mM, 100 µL) was mixed with TILI-2 (final concentration 0–200 µM, 10 µL) and incubated at room temperature in the dark for 30 min. Then, the reaction was monitored by measuring the absorbance of 515 nm using a SpectraMax M5 plate reader (Molecular Devices, Sunnyvale, CA, USA). DPPH radical inhibition (%) was calculated using the equation below: DPPH radical inhibition %=1−A515 sample/A515 control×100 where A515 sample and A515 control are the absorbance at 515 nm of the reaction with and without peptide.
as §1

[3] = tested on: human keratinocyte (HaCaT); details: new results consistent with previous reports; cited from earlier work
[4] = tested on: RAW 264.7 cells; test: Cell viability assay (MTT), macrophages; format: cell-based; details: 24 h
Description: (§2) Fibroblast cells (NHDF) and B16F1 cells were purchased from the American Type Culture Collection (ATCC, Manassas, VA, USA) and cells were cultured in DMEM supplemented with 10% heat-inactivated FBS, 1% penicillin-streptomycin solution, and 5% L-glutamine. RAW 264.7 cells were purchased from the American Type Culture Collection (ATCC, Manassas, VA, USA) and cells were cultured in RPMI supplemented with 10% heat-inactivated FBS and 1% penicillin-streptomycin solution. These cells were cultured at 37 °C in a 5% CO2 and 90% relative humidity incubator. Cell viability assay was performed using slight modifications of the protocol described by Phosri et al.. Briefly, fibroblast cells (NHDF) (8000 cells/well) and RAW 264.7 cells (25,000 cells/well) were seeded onto a 96-well plate and allowed to recover overnight. Then, the cells were incubated with different concentrations of peptides (final concentration of 0–1400 µM, 100 µL). After 24 h incubation, the culture medium was removed, and MTT was added (0.5% w/v, 100 µL). After incubation for a further 30 min at 37 °C, DMSO was added and the absorbance at 570 nm was measured. The cell viability was calculated using the equation below: Cell viability %=A570 sample/A570 control×100 where A570 sample and A570 control are the absorbance of cells with and without the peptide treatment. The data were represented as mean ± SD (n = 3). […]

[5] = tested on: mouse melanoma (B16F1) cells; details: B16F1, 350 µM; cited from earlier work
[6] = tested on: NHDF cells; test: Cell viability assay (MTT), fibroblasts; format: cell-based, human; details: 24 h
Description: as §2

[7] = tested on: mouse B16 melanomas; details: cited from earlier work
Source text: Bioactive peptides are a promising group of depigmenting agents because they are derived from natural sources and therefore display low cytotoxicity.

[8] = target: T1, mushroom tyrosinase (mushroom, UniProt C7FF04 1-392); test: cell-based or functional assay
[9] = target: T1, mushroom tyrosinase; test: enzyme inhibition kinetics (Lineweaver-Burk plot and secondary plot); monophenolase activity of mushroom tyrosinase, L-tyrosine 0.10-0.80 mM, TILI-2 0-300 µM, 50 mM phosphate buffer pH 6.8, 25 °C, absorbance at 475 nm; Ki from slope versus TILI-2 concentration; details: both partners purified

T1 sequence (C7FF04 1-392): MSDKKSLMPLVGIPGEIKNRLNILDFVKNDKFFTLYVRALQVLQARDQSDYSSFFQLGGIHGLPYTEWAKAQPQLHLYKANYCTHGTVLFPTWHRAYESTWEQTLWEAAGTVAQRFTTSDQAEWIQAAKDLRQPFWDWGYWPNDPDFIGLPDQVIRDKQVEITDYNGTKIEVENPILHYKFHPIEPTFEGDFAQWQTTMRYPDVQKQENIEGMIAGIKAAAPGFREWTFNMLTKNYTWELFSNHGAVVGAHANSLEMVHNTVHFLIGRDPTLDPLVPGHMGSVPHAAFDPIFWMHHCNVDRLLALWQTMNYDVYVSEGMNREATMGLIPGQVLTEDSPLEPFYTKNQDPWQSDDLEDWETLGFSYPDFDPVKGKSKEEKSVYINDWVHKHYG

In the case of `O=C1O[C@H]([C@@H](O)CO)C(O)=C1O` [Ascorbic acid, L-Ascorbic acid], the “ABTS radical scavenging (range over concentrations)” value ([1]; 734 nm) is reported as 11.64–82.68%, the IC50 ([1]; absorbance 734 nm, mean ± SD, n = 3) is reported as 15.9 ± 0.16 µM and the “DPPH radical scavenging (range over concentrations)” value ([2]; 515 nm) is reported as 13.79–82.63%. The IC50 ([2]; absorbance 515 nm, mean ± SD, n = 3) was 40.09 ± 0.21 µM.

For CNGVQPK [TILI-2], the “cytotoxicity (in words)” value [3] is listed as “not toxic”, the Cell viability ([4]; 1400 µM) is listed as 105.41 ± 5.42% and the “cytotoxicity (in words)” value ([4]; RAW 264.7, 0 to 1400 µM, MTT) is listed as “not toxic”. The “cytotoxicity (in words)” value [5] was “non-toxic”, the Cell viability ([6]; 1400 µM) was 99.65 ± 1.31% and the “cytotoxicity (in words)” value ([6]; NHDF, 0 to 1400 µM, MTT) was “not toxic”.

In the case of “LQPSHY [CT-2, CT-2 (LQPSHY), a C-terminus tyrosine peptide derived from rice bran]”, the “melanogenesis (in words)” value [7] is listed as “repressed melanogenesis”.

B1: Tyrosinase Inhibitor Leucrocin I-2 (TILI-2) (peptide)
peptide: CNGVQPK
notes: N-terminal cysteine-containing heptapeptide, a peptide derivative from Leucrocin I; source: synthetic peptide (GL Biochem Ltd., Fmoc solid-phase synthesis, purity more than 95%)
With B1 the “IC50 of inhibition of tyrosinase monophenolase activity (L-tyrosine as substrate, A475)” value [8] was 583 µM and the Ki [9] was 273 µM.
